From patent publication US12492195B2, “Preparation method for and crystal form of 3-aryloxy-3-five-membered heteroaryl-propylamine compound” (Zhangzhou Pien Tze Huang Pharmaceutical Co., Ltd., priority 2020, dated 2025)

Assays:
[1] = tested on: HepG2 cell; assay: Cytotoxicity test (CCK-8), hepatotoxicity; assay type: cell-based; conditions: Homo sapiens, HepG2, 72 h
Procedure: (§1) HepG-2 and SH-SY5Y cells were prepared and placed in a 10 cm dish and cultured in a cell incubator in 5% CO2 at 37° C. Trypsin was used to digest and cells were re-suspended and counted. The cells were transferred to 96-well plate with 8000 cells in a well (100 μl/well). The plate was cultured in a cell incubator for 24 h in 5% CO2 at 37° C. A serial of gradient concentration dilutions of compound with 2-fold dilution were prepared, and the system was 100 μL/well. The supernatant of cell culture system on the first day in the 96-well plate was removed, and fresh-prepared drug concentration system was added into culture plate wells containing cultured cells (duplicate wells were set). The cells were cultured in a cell incubator in 5% CO2 at 37° C. for 72 h. After the cell culture was completed, the supernatant of cell culture system was removed from 96-well plate, 100 μl of detection solution containing 10% CCK-8 medium was added into each well, and the cells were cultured in a cell incubator in 5% CO2 at 37° C. for 1 h and then taken out after time was up. Microplate reader was used to measure the absorbance at 450 nm. Data was processed to calculate cytotoxicity, and IC50 was calculated by GraphPad Prism. The cytotoxicity calculation formula was as follows: Cytotoxicity (%)=[A(0 Dosing)−A(Dosing)]/[A(0 Dosing)-A (Control)]×100 • A (Dosing): the absorbance of wells containing cells, CCK-8 solution and drug solution. • A (Control): the absorbance of wells containing medium and CCK-8 solution and without cells. • A (0 Dosing): the absorbance of wells containing cells and CCK-8 solution and without drug solution. Experimental Result

[2] = tested on: C57BL/6 mice; assay: formalin pain model in mice; assay type: in vivo; conditions: for paw licking time: Phase II, 10-60 min; for analgesic effect (EDso) in phase II pain: intraperitoneal
Procedure: Before the start of experiment, the mice were allowed to adapt to the experimental environment for 72 h with free feeding and drinking water. The test drug was administrated by intraperitoneal injection at a dose of 20 mg/kg, and then the mice were placed in a transparent, ventilated plexiglass cylinder for 1 h, and then 20 μl of 4% formalin solution was injected into the left hind plantar of mice of each group by microinjector. The paw pain response of mice was real-time recorded by miniature camera. The frequency of lifting (1 score/time), shaking (2 score/time), and licking (3 score/time) the left paw and the time length of licking left paw were used as indicators of pain response, the cumulative scoring and licking time in two stages of 0-10 min (phase I, acute pain phase) and 10-60 min (phase II, inflammatory pain phase) were observed and recorded, and the statistical analysis was conducted.
100 male C57BL/6 mice (9-week aged) were randomly divided into 10 groups to evaluate analgesic activity of two compounds in the formalin pain model in mice, and each group had 10 mice. […] Before the start of experiment, the mice were allowed to adapt experimental environment for 72 h with free feeding and drinking water.
After administration, the mice were placed in a transparent, ventilated plexiglass cylinder, and 1 h later, 20 μl of 4% formalin solution was injected into the left hind plantar of mice in each group by micro-injector, and paw pain response in mice was recorded in real time by a mini-camera. The time length of licking left paw was used as an indicator of pain response, licking time in 0-10 min (phase I) and 10-60 min (phase II) was observed and recorded, and the statistical analysis was conducted. The half effective dose (EDso) of three compounds was calculated: EDso referred to the dose of the drug that decreased licking time by half as compared with the blank control group. The less the ED50 value was, the lower the effective analgesic dose of the compound was and the stronger the analgesic effect was.

[3] = tested on: SH-SY5Y; assay: Cytotoxicity test (CCK-8), neurotoxicity; assay type: cell-based; conditions: Homo sapiens, 72 h
Procedure: as §1

[4] = target: T1, TRPA1 (Mus musculus, UniProt Q8BLA8); assay: IonWorks Barracuda (IWB) automated patch clamp detection of TRPA1 inhibitory activity; assay type: cell-based
T1 construct: expressed in transfected cells
Procedure: IonWorks Barracuda (IWB) automated patch clamp detection was used as test method: HEK293 cells stably expressing TRPA1 were placed in the T175 culture flask with DMEM medium containing 15 μg/mL Blasticidin S HCl, 200 μg/mL Hygromycin B and 10% FBS, and cultured in an incubator in 5% CO2 at 37° C. When the cell density reached about 80%, the culture medium was removed, the residue was rinsed once with phosphate buffered saline (PBS) without calcium and magnesium. 3 mL of Trypsin was added to digest for 2 min, 7 mL of culture medium was added to terminate the digestion. The cells were collected to 15 mL centrifuge tube and centrifuged at 800 rpm for 3 min. After the supernatant was removed, the cells were added to appropriate volume of extracellular fluid for re-suspending, and the cell density was controlled at 2-3×10^6/mL for IWB experiment. The formulation of extracellular fluid (in mM) was 140 NaCl, 5 KCl, 1 MgCl2, 10 HEPES, 0.5 EGTA, 10 Glucose (pH 7.4); the formulation of intracellular fluid (in mM) was 140 CsCl, 10 HEPES, 5 EGTA, 0.1 CaCl2), 1 MgCl2 (pH 7.2). 28 mg/mL of amphotericin B was freshly prepared with DMSO on the day of experiment, and then final concentration of 0.1 mg/mL of that was prepared with intracellular fluid.
Population patch clamp (PPC) plate was used in IWB experiment. The entire detection process was automatically carried out by the instrument. […]
The record of data and the export of current amplitude measurement were carried out by IWB software (version 2.5.3, Molecular Devices Corporation. Union City, CA). No statistics was recorded for wells with sealing impedance lower than 20 MΩ. […] TRPA1 current amplitude was measured at ±100 mV. […] The dose-effect curve of compounds and IC50 were fitted and calculated by GraphPad Prism 5.02 (GraphPad Software, San Diego, CA).

T1 sequence (Q8BLA8 whole entry): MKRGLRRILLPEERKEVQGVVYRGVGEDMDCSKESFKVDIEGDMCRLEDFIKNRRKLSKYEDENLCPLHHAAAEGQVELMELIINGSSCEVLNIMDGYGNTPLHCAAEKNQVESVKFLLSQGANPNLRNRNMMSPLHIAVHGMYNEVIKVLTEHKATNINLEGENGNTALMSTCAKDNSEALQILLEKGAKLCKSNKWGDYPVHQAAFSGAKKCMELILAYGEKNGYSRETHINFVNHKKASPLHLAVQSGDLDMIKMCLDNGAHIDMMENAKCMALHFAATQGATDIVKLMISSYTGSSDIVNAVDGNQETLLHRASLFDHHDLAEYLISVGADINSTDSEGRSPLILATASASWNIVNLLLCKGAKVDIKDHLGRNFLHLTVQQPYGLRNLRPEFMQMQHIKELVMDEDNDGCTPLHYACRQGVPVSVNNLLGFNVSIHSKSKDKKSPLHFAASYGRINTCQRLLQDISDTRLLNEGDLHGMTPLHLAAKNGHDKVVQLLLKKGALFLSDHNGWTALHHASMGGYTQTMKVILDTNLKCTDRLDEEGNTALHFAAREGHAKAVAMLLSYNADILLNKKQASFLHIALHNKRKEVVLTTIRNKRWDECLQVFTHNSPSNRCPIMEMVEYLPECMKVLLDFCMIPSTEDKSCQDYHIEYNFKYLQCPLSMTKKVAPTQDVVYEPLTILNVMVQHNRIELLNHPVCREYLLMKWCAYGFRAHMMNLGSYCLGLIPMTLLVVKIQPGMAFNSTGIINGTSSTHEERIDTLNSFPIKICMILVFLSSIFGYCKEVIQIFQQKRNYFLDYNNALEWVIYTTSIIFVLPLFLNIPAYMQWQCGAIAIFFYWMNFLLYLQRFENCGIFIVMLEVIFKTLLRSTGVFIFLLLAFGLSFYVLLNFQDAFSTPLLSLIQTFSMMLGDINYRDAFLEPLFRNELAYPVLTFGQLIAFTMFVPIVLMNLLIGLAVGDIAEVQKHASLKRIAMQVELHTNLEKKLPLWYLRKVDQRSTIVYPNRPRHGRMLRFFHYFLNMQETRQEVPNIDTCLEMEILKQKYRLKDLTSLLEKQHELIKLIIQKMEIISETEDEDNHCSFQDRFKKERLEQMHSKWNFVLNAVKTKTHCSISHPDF

SMILES	IC50 [1] [µM]	paw licking time ([2]; 0.1 mg/kg intraperitoneal) [s]	paw licking time ([2]; 0.5 mg/kg intraperitoneal) [s]	paw licking time ([2]; 1 mg/kg intraperitoneal) [s]	decrease of paw licking time as compared with blank vehicle ([2]; 1 mg/kg, phase II (10-60 min))	paw licking time ([2]; 5 mg/kg intraperitoneal) [s]	paw licking time ([2]; 10 mg/kg intraperitoneal) [s]	analgesic effect (EDso) in phase II pain ([2]; phase II (10-60 min)) [mg/kg]	IC50 [3] [µM]	paw licking time ([2]; 20 mg/kg intraperitoneal) [s]	IC50 ([4]; HEK293 cells stably expressing TRPA1, AITC-induced current) [µM]	analgesic activity, licking time ([2]; 20 mg/kg intraperitoneal, phase I (0-10 min) and phase II (10-60 min), compared with saline group)	activity ratio, IC50 of compound C1/IC50 of compound IC-10 [4]
CNCC[C@H](Oc1cccc2ccoc12)c1cccs1 [IC-1, (S)-3-(Benzofuran-7-yloxy)-N-methyl-3-(thiophen-2-yl)propan-1-amine]	60 to 120	339.35 ± 27.90	368.16 ± 44.46	171.57 ± 39.69	more than 50%	158.02 ± 25.18	35.68 ± 11.77	2.22	60 to 120	–	–	–	–
CNCC[C@H](Oc1cccc2ccccc12)c1cccs1 [Duloxetine (S configuration), Duloxetine, reference compound]	33	–	–	259.97 ± 64.44	–	230.49 ± 41.31	162.83 ± 36.27	8.00	28	72.27 ± 17.29	10 to 20	–	–
CNCC[C@H](Oc1cccc2c1CCC2)c1cccs1 [IC-10]	60 to 120	–	–	–	–	–	–	–	60 to 120	–	–	almost completely inhibited licking paw behavior caused by pain	about 2.5 times
